Values of other authors as cited in patent US7881871B2, “Method for designing surfaces” (Bio-Layer Pty Limited, priority 2003, dated 2011).
Read-outs that look alike come from different tables or passages of the source.

Tests used:
[1] = test system: monoclonal antibodies (IgG subclasses)

Row | Substance | affinity for antibodies (antibodies (Fc fragment); chicken antibodies) | affinity for antibodies (antibodies (Fc fragment); human, horse, cow, pig and rabbit antibodies) | affinity for antibodies (antibodies (Fc fragment); sheep, goat, hamster, guinea pig, rat and mouse antibodies) | affinity for monoclonal antibodies ([1]; human IgG1, IgG2, IgG3 and IgG4, mouse IgG1, IgG2a, IgG2b and IgG3, rat IgG2a) | affinity for monoclonal antibodies ([1]; rat IgG1, IgG2b and IgG2c) | affinity for antibodies (antibodies (Fc fragment); horse, cow and mouse antibodies) | affinity for antibodies (antibodies (Fc fragment); human, pig, rabbit and guinea pig antibodies) | affinity for antibodies (antibodies (Fc fragment); sheep, goat, chicken, hamster and rat antibodies) | affinity for monoclonal antibodies ([1]; human IgG1, IgG2, IgG3, mouse IgG2a and IgG2b) | affinity for monoclonal antibodies ([1]; human IgG1, rat IgG1, IgG2a and IgG2b) | affinity for monoclonal antibodies ([1]; mouse IgG1 and IgG3, rat IgG2c)
1 | Protein G: 30,000 to 35,000 dalton protein isolated from the cell wall of beta-hemolytic Streptococci | low affinity | high affinity | moderate affinity | high affinity | moderate or low affinity |  |  |  |  |  | 
2 | Protein A: 42,000 dalton cell-wall-associated protein of S. Aureus with IgG binding activity |  |  |  |  |  | moderate affinity | high affinity | low or no affinity | high affinity | no affinity | moderate or low affinity
